Test results from US7709482B2, “Polycyclic heteroaryl substituted triazoles useful as Axl inhibitors” (Rigel Pharmaceuticals, Inc., priority 2006, dated 2010).

The compounds below were run against T1, Axl (Homo sapiens, UniProt P30530) (assay: Phospho-Akt In-Cell Western Assay (inhibition of Axl activity after Axl-antibody cross-linking)). Conditions: not given.
T1 construct: endogenous in cells; host or cells: HeLa cells
T1 sequence (P30530 26-894): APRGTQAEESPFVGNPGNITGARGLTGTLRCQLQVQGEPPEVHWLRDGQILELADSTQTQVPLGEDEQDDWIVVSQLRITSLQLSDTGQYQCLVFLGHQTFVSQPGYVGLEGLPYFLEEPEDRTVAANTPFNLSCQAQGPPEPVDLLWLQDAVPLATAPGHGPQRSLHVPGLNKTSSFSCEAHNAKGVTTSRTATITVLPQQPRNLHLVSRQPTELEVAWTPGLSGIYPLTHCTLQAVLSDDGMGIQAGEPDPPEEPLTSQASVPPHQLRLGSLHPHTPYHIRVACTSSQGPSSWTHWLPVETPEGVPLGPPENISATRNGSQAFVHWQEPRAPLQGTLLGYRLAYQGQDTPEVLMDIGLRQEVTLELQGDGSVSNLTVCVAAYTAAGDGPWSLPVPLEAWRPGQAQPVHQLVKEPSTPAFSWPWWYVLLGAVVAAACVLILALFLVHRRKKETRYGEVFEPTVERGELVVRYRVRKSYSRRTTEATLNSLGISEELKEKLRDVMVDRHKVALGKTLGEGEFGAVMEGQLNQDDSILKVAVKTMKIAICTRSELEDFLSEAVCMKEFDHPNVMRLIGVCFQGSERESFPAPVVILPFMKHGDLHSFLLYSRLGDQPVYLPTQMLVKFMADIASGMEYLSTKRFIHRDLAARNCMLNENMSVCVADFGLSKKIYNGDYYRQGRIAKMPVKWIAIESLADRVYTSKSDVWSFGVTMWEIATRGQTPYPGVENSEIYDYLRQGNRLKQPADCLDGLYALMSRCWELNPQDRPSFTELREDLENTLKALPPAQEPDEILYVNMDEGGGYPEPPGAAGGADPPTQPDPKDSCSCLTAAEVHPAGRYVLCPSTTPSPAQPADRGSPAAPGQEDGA
Assay type: cell-based
Outline: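 HeLa cells on poly-L-lysine, starved 24 h in 0.5% FCS DMEM with Axl/Fc 500 ng/mL, pre-treated with compound 1 h at 37 °C, then stimulated 5 min by anti-Axl/anti-mouse antibody cross-linking. Fixed cells probed for phospho-Akt with HRP secondary and chemiluminescent detection.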

SMILES | IC50
Nc1nc(Nc2ccc(N3C4CCC3CC(N3CCCC3)C4)c(F)c2)nn1-c1cc2c(nn1)-c1ccccc1CCC2 (stereo not shown) [Compound 76, 1-(6,7-dihydro-5H-benzo[6,7]cyclohepta[1,2-c]pyridazin-3-yl)-N^3-(3-fluoro-4-(3-(pyrrolidin-1-yl)-8-azabicyclo[3.2.1]oct-8-yl)phenyl)-1H-1,2,4-triazole-3,5-diamine] | < 1000 nM

Same assay, conditions: Hela cells, phospho-Akt chemiluminescence normalized to relative cell number; compounds of formula (Ia), Table 1; read-out: IC50

SMILES | IC50
CN(C)C1CCN(c2ccc(Nc3nc(N)n(-c4cc5c(nn4)-c4ccccc4CCC5)n3)cc2F)CC1 [Compound 61, 1-(6,7-dihydro-5H-benzo[6,7]cyclohepta[1,2-c]pyridazin-3-yl)-N^3-(3-fluoro-4-(4-dimethylaminopiperidin-1-yl)phenyl)-1H-1,2,4-triazole-3,5-diamine] | < 1000 nM
Nc1nc(Nc2ccc(N3CCC(N4CCCC4)CC3)c(Cl)c2)nn1-c1cc2c(nn1)-c1ccccc1CCC2 [Compound 62, 1-(6,7-dihydro-5H-benzo[6,7]cyclohepta[1,2-c]pyridazin-3-yl)-N^3-(3-chloro-4-(4-pyrrolidin-1-yl-piperidin-1-yl)phenyl)-1H-1,2,4-triazole-3,5-diamine] | < 1000 nM
Nc1nc(Nc2ccc(N3CCC(N4CCCC4)CC3)c(C(F)(F)F)c2)nn1-c1cc2c(nn1)-c1ccccc1CCC2 [Compound 63, 1-(6,7-dihydro-5H-benzo[6,7]cyclohepta[1,2-c]pyridazin-3-yl)-N^3-(3-trifluoromethyl-4-(4-pyrrolidin-1-yl-piperidin-1-yl)phenyl)-1H-1,2,4-triazole-3,5-diamine] | 1000 to 10000 nM
COc1cc2c(cc1OC)-c1nnc(-n3nc(Nc4ccc(N5CCC(N6CCCC6)CC5)c(F)c4)nc3N)cc1CCC2 [Compound 64, 1-(6,7-dihydro-5H-9,10-dimethoxybenzo[6,7]cyclo-hepta[1,2-c]pyridazin-3-yl)-N^3-(3-fluoro-4-(4-pyrrolidin-1-yl-piperidin-1-yl)phenyl)-1H-1,2,4-triazole-3,5-diamine] | 1000 to 10000 nM
COc1cc2c(c(OC)c1OC)-c1nnc(-n3nc(Nc4ccc(N5CCC(N6CCCC6)CC5)c(F)c4)nc3N)cc1CCC2 [Compound 65, 1-(6,7-dihydro-5H-9,10,11-trimethoxybenzo[6,7]cyclo-hepta[1,2-c]pyridazin-3-yl)-N^3-(3-fluoro-4-(4-pyrrolidin-1-yl-piperidin-1-yl)phenyl)-1H-1,2,4-triazole-3,5-diamine] | < 1000 nM
CN1CC2CN(c3ccc(Nc4nc(N)n(-c5cc6c(nn5)-c5ccccc5CCC6)n4)cc3F)CC2C1 (stereo not shown) [Compound 66, 1-(6,7-dihydro-5H-benzo[6,7]cyclohepta[1,2-c]pyridazin-3-yl)-N^3-(3-fluoro-4-(5-methyloctahydro-pyrrolo[3,4-c]pyrrolyl)phenyl)-1H-1,2,4-triazole-3,5-diamine] | < 1000 nM
Nc1nc(Nc2ccc(N3CCCC(N4CCCC4)C3)c(F)c2)nn1-c1cc2c(nn1)-c1ccccc1CCC2 (stereo not shown) [Compound 68, 1-(6,7-dihydro-5H-benzo[6,7]cyclohepta[1,2-c]pyridazin-3-yl)-N^3-(3-fluoro-4-(3-pyrrolidin-1-yl-piperidin-1-yl)phenyl)-1H-1,2,4-triazole-3,5-diamine] | < 1000 nM
Nc1nc(Nc2ccc(N3CCCCC(N4CCCC4)C3)c(F)c2)nn1-c1cc2c(nn1)-c1ccccc1CCC2 (stereo not shown) [Compound 69, 1-(6,7-dihydro-5H-benzo[6,7]cyclohepta[1,2-c]pyridazin-3-yl)-N^3-(3-fluoro-4-(3-pyrrolidin-1-yl-azepan-1-yl)phenyl)-1H-1,2,4-triazole-3,5-diamine] | < 1000 nM
CN1CCC(C2CCN(c3ccc(Nc4nc(N)n(-c5cc6c(nn5)-c5ccccc5CCC6)n4)cc3F)CC2)CC1 [Compound 70, 1-(6,7-dihydro-5H-benzo[6,7]cyclohepta[1,2-c]pyridazin-3-yl)-N^3-(3-fluoro-4-(4-N-methylpiperidin-4-yl-piperidin-1-yl)phenyl)-1H-1,2,4-triazole-3,5-diamine] | < 1000 nM
Nc1nc(Nc2ccc(N3CCC(N4CCCC4)CC3)c(F)c2)nn1-c1cc2c(nn1)CCCc1ccccc1-2 [Compound 71, 1-(6,7-dihydro-5H-benzo[6,7]cyclohepta[4,5-c]pyridazin-2-yl)-N^3-(3-fluoro-4-(4-(pyrrolidinyl)piperidinyl)-phenyl)-1H-1,2,4-triazole-3,5-diamine] | < 1000 nM
CCCN1CC2CN(c3ccc(Nc4nc(N)n(-c5cc6c(nn5)-c5ccccc5CCC6)n4)cc3F)CC2C1 (stereo not shown) [Compound 72, 1-(6,7-dihydro-5H-benzo[6,7]cyclohepta[1,2-c]pyridazin-3-yl)-N^3-(3-fluoro-4-(5-propyl-octahydropyrrolo[3,4-c]pyrrolyl)phenyl)-1H-1,2,4-triazole-3,5-diamine] | < 1000 nM
Nc1nc(Nc2ccc(N3CCN4CCCCCC4C3)c(F)c2)nn1-c1cc2c(nn1)-c1ccccc1CCC2 (stereo not shown) [Compound 73, 1-(6,7-dihydro-5H-benzo[6,7]cyclohepta[1,2-c]pyridazin-3-yl)-N^3-(3-fluoro-4-(decahydropyrazino[1,2-a]azepin-2-yl)phenyl)-1H-1,2,4-triazole-3,5-diamine] | < 1000 nM
Nc1nc(Nc2ccc(N3CC4CN(C5CCCC5)CC4C3)c(F)c2)nn1-c1cc2c(nn1)-c1ccccc1CCC2 (stereo not shown) [Compound 75, 1-(6,7-dihydro-5H-benzo[6,7]cyclohepta[1,2-c]pyridazin-3-yl)-N^3-(3-fluoro-4-(5-cyclopentyloctahydro-pyrrolo[3,4-c]pyrrolyl)phenyl)-1H-1,2,4-triazole-3,5-diamine] | < 1000 nM
Nc1nc(Nc2ccc(N3CCCC(N4CCCC4)CC3)c(F)c2)nn1-c1cc2c(nn1)-c1ccccc1CCC2 (stereo not shown) [Compound 77, 1-(6,7-dihydro-5H-benzo[6,7]cyclohepta[1,2-c]pyridazin-3-yl)-N^3-(3-fluoro-4-(4-pyrrolidin-1-yl-azepan-1-yl)phenyl)-1H-1,2,4-triazole-3,5-diamine] | < 1000 nM
CC(C)N1CCN(C2CCN(c3ccc(Nc4nc(N)n(-c5cc6c(nn5)-c5ccccc5CCC6)n4)cc3F)CC2)CC1 [Compound 80, 1-(6,7-dihydro-5H-benzo[6,7]cyclohepta[1,2-c]pyridazin-3-yl)-N^3-(3-fluoro-4-(4-(4-isopropylpiperazin-1-yl)piperidin-1-yl)phenyl)-1H-1,2,4-triazole-3,5-diamine] | < 1000 nM
CN1CCC2CN(c3ccc(Nc4nc(N)n(-c5cc6c(nn5)-c5ccccc5CCC6)n4)cc3F)CC21 (stereo not shown) [Compound 81, 1-(6,7-dihydro-5H-benzo[6,7]cyclohepta[1,2-c]pyridazin-3-yl)-N^3-(3-fluoro-4-(1-methyl-octahydropyrrolo[3,4-b]pyrrol-5-yl)phenyl)-1H-1,2,4-triazole-3,5-diamine] | < 1000 nM
CN(C1CCCC1)C1CCN(c2ccc(Nc3nc(N)n(-c4cc5c(nn4)-c4ccccc4CCC5)n3)cc2F)CC1 [Compound 82, 1-(6,7-dihydro-5H-benzo[6,7]cyclohepta[1,2-c]pyridazin-3-yl)-N^3-(3-fluoro-4-(4-(N-methyl-cyclopentylamino)-piperidinyl)phenyl)-1H-1,2,4-triazole-3,5-diamine] | < 1000 nM
CCCN(CCC)C1CCN(c2ccc(Nc3nc(N)n(-c4cc5c(nn4)-c4ccccc4CCC5)n3)cc2F)CC1 [Compound 83, 1-(6,7-dihydro-5H-benzo[6,7]cyclohepta[1,2-c]pyridazin-3-yl)-N^3-(3-fluoro-4-(4-(dipropylamino)piperidin-1-yl)phenyl)-1H-1,2,4-triazole-3,5-diamine] | 1000 to 10000 nM
CCCN1CCC2CN(c3ccc(Nc4nc(N)n(-c5cc6c(nn5)-c5ccccc5CCC6)n4)cc3F)CCC21 (stereo not shown) [Compound 84, 1-(6,7-dihydro-5H-benzo[6,7]cyclohepta[1,2-c]pyridazin-3-yl)-N^3-(3-fluoro-4-(1-propyloctahydro-1H-pyrrolo[3,2-c]pyridine-5-yl)phenyl)-1H-1,2,4-triazole-3,5-diamine] | < 1000 nM
CN1CCN(C2CCN(c3ccc(Nc4nc(N)n(-c5cc6c(nn5)CCCc5ccccc5-6)n4)cc3F)CC2)CC1 [Compound 85, 1-(6,7-dihydro-5H-benzo[6,7]cyclohepta[4,5-c]pyridazin-2-yl)-N^3-(3-fluoro-4-(4-(N-methylpiperazin-1-yl)piperidin-1-yl)phenyl)-1H-1,2,4-triazole-3,5-diamine] | < 1000 nM
CC(C)(C)OC(=O)NC1CCN(c2ccc(Nc3nc(N)n(-c4cc5c(nn4)-c4ccccc4CCC5)n3)cc2F)CC1 [Compound 86, 1-(6,7-dihydro-5H-benzo[6,7]cyclohepta[1,2-c]pyridazin-3-yl)-N^3-(3-fluoro-4-(4-(tert-butyloxycarbonylamino)-piperidin-1-yl)phenyl)-1H-1,2,4-triazole-3,5-diamine] | 1000 to 10000 nM
